Calls of active or inactive are those of the source. The rule behind the calls is not given here.
What was measured:
[1] = target: Protein cereblon/Cyclin-dependent kinase 7 (Homo sapiens) (UniProt P50613+Q96SW2); assay: Protac activity at CRBN/CDK7 in human MDA-MB-231 cells assessed as induction of degradation of CDK7 at 100 to 500 nM incubated for 4 to 8 hrs by Western blot analysis; assay type: cell-based; conditions: dose 100-500 nM, time 4-8 hrs
Tumour [2] = assay: Reduction in CDK7 protein level in tumor of BALB/c mouse xenografted with human MDA-MB-231 cells at 5 mg/kg, intratumoral injection daily for 7 days by immunohistochemistry staining analysis relative to control; assay type: functional; conditions: MDA-MB-231, Neoplasm, 168 h, time 7 day
MDA-MB-231 [3] = assay: Antitumor activity against human MDA-MB-231 cells xenografted in BALB/c mouse model assessed as induction of CDK9 degradation in tumor tissue at 5 mg/kg, intratumoral injection daily for 7 days by Western blot analysis relative to control; assay type: functional, organism-based; conditions: time 7.0 day
Tumour [4] = assay: Effect on CDK7 protein level in tumor of BALB/c mouse xenografted with human MDA-MB-231 cells at 2.5 to 5 mg/kg, intratumoral injection daily for 7 days by Western blot analysis relative to control; assay type: functional, organism-based; conditions: Neoplasm, dose 2.5-5 mg/kg, time 7.0 day
Tumour [5] = assay: Reduction in CDK9 protein level in tumor of BALB/c mouse xenografted with human MDA-MB-231 cells at 5 mg/kg, intratumoral injection daily for 7 days by immunohistochemistry staining analysis relative to control; assay type: functional; conditions: MDA-MB-231, Neoplasm, 168 h, time 7 day
Tumour [6] = assay: Reduction in MYC protein level in tumor of BALB/c mouse xenografted with human MDA-MB-231 cells at 5 mg/kg, intratumoral injection daily for 7 days by immunohistochemistry staining analysis relative to control; assay type: functional; conditions: MDA-MB-231, Neoplasm, 168 h, time 7 day
[7] = target: Protein cereblon/Cyclin-dependent kinase 4 (Homo sapiens) (UniProt P11802+Q96SW2); assay: Protac activity at CRBN/CDK4 in human MDA-MB-231 cells assessed as induction of degradation of CDK4 at 100 to 500 nM incubated for 4 to 8 hrs by Western blot analysis; assay type: cell-based; conditions: dose 100-500 nM, time 4-8 hrs
Protein cereblon/Cyclin-dependent kinase 4 (Homo sapiens), sequence (P11802 2-303 limits assumed): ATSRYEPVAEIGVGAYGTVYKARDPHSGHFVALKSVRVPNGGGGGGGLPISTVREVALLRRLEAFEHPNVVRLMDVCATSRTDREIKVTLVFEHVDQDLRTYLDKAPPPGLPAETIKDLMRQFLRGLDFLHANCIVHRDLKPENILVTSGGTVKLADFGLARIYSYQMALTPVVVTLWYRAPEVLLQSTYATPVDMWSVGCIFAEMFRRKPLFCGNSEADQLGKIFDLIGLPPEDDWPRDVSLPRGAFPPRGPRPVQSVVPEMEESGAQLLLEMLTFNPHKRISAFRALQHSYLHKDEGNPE
Protein cereblon/Cyclin-dependent kinase 4 (Homo sapiens), sequence (Q96SW2 whole entry partner): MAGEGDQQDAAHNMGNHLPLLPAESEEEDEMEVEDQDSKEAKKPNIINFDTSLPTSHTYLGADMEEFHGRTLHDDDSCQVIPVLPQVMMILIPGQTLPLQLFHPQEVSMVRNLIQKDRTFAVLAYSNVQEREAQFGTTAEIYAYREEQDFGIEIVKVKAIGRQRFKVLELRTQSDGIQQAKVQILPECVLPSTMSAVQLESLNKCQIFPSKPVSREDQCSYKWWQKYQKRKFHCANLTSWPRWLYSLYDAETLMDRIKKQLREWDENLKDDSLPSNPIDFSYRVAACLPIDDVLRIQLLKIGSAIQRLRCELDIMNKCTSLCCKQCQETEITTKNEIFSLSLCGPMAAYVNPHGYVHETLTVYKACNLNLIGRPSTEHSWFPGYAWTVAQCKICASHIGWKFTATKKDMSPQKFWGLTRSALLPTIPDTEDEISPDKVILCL

Tumour [8] = assay: Induction of CDK9 degradation in tumor of human MDA-MB-231 cells xenografted in BALB/c mouse model at 0.15 mM intratumoral injection measured after 16 hrs by Western blot analysis relative to control; assay type: functional, Neoplasm
[9] = target: Protein cereblon/Eukaryotic peptide chain release factor GTP-binding subunit ERF3A (Homo sapiens) (UniProt Q96SW2+P15170); assay: Protac activity at CRBN/GSPT1 in human MDA-MB-231 cells assessed as induction of degradation of GSPT1 incubated for 4 to 8 hrs by Western blot analysis; assay type: cell-based; conditions: time 4-8 hrs
Protein cereblon/Eukaryotic peptide chain release factor GTP-binding subunit ERF3A (Homo sapiens), sequence (P15170 whole entry, looked up): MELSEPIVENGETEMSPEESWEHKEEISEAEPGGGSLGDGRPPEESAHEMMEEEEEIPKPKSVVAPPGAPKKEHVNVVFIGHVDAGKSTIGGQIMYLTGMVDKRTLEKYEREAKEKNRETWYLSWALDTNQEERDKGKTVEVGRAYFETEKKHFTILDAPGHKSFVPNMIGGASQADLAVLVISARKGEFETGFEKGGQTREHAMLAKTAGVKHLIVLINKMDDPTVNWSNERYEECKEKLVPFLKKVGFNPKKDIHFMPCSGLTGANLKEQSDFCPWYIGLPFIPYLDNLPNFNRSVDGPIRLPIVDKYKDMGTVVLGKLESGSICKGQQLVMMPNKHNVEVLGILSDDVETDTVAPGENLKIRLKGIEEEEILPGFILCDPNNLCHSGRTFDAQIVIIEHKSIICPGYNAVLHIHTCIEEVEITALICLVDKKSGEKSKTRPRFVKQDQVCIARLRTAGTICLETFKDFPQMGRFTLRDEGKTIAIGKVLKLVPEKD
Protein cereblon/Eukaryotic peptide chain release factor GTP-binding subunit ERF3A (Homo sapiens), sequence (Q96SW2 whole entry, looked up): as the sequence (Q96SW2 whole entry partner) above

Tumour [10] = assay: Reduction in Ki-67 protein level in tumor of BALB/c mouse xenografted with human MDA-MB-231 cells at 5 mg/kg, intratumoral injection daily for 7 days by immunohistochemistry staining analysis relative to control; assay type: functional; conditions: MDA-MB-231, Neoplasm, 168 h, time 7 day
[11] = target: Protein cereblon/Cyclin-dependent kinase 5 (Homo sapiens) (UniProt Q00535+Q96SW2); assay: Protac activity at CRBN/CDK5 in human MDA-MB-231 cells assessed as induction of degradation of CDK5 at 100 to 500 nM incubated for 4 to 8 hrs by Western blot analysis; assay type: cell-based; conditions: dose 100-500 nM, time 4-8 hrs
Protein cereblon/Cyclin-dependent kinase 5 (Homo sapiens), sequence (Q00535 whole entry, looked up): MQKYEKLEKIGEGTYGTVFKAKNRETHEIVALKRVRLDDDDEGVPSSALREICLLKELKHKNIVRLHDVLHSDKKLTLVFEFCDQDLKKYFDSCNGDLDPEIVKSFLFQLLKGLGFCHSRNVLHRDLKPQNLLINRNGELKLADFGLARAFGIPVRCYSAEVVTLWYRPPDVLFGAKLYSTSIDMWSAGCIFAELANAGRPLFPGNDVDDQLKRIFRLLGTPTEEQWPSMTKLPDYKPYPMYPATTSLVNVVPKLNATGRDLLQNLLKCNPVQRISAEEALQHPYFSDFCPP
Protein cereblon/Cyclin-dependent kinase 5 (Homo sapiens), sequence (Q96SW2 whole entry, looked up): as the sequence (Q96SW2 whole entry partner) above

Tumour [12] = assay: Reduction in MYC protein level in tumor of BALB/c mouse xenografted with human MDA-MB-231 cells at 2.5 mg/kg, intratumoral injection daily for 7 days by immunohistochemistry staining analysis relative to control; assay type: functional; conditions: MDA-MB-231, Neoplasm, 168 h, time 7 day
[13] = Toxicity in BALB/c mouse xenografted with human MDA-MB-231 cells assessed as body weight loss at 2.5 mg/kg, intratumoral injection daily for 7 days; assay type: organism-based; conditions: in vivo, other, 168 h, time 7 day
[14] = target: Protein cereblon/Cyclin-dependent kinase 1 (Homo sapiens) (UniProt P06493+Q96SW2); assay: Protac activity at CRBN/CDK1 in human MDA-MB-231 cells assessed as induction of degradation of CDK1 at 100 to 500 nM incubated for 4 to 8 hrs by Western blot analysis; assay type: cell-based; conditions: dose 100-500 nM, time 4-8 hrs
Protein cereblon/Cyclin-dependent kinase 1 (Homo sapiens), sequence (P06493 whole entry, looked up): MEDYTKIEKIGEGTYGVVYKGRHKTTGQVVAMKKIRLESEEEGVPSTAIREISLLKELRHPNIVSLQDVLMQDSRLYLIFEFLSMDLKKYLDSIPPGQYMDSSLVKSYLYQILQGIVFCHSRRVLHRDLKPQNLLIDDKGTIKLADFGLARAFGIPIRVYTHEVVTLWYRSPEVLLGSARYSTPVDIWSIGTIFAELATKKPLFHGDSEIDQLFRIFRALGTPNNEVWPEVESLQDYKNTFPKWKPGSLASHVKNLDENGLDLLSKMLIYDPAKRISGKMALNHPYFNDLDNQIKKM
Protein cereblon/Cyclin-dependent kinase 1 (Homo sapiens), sequence (Q96SW2 whole entry, looked up): as the sequence (Q96SW2 whole entry partner) above

MDA-MB-231 [15] = assay: Growth inhibition of human MDA-MB-231 cells assessed as cell viability measured after 4 days by WST8 assay; assay type: functional, cell-based; conditions: MDA-MB-231, 96 h
MDA-MB-231 [16] = assay: Antitumor activity against human MDA-MB-231 cells xenografted in BALB/c mouse model assessed as decrease in tumor volume at 5 mg/kg, intratumoral injection daily for 7 days relative to control; assay type: functional; set-up: scale not given: the % may be the effect or the level left; conditions: time 7 day
MDA-MB-231 [17] = assay: Antitumor activity against human MDA-MB-231 cells xenografted in BALB/c mouse model assessed as induction of CDK9 degradation in tumor tissue at 2.5 mg/kg, intratumoral injection daily for 7 days by Western blot analysis relative to control; assay type: functional, organism-based; conditions: time 7.0 day
[18] = Toxicity in BALB/c mouse xenografted with human MDA-MB-231 cells assessed as body weight loss at 5 mg/kg, intratumoral injection daily for 7 days; assay type: organism-based; conditions: in vivo, other, 168 h, time 7 day
Tumour [19] = assay: Reduction in CDK9 protein level in tumor of BALB/c mouse xenografted with human MDA-MB-231 cells at 2.5 mg/kg, intratumoral injection daily for 7 days by immunohistochemistry staining analysis relative to control; assay type: functional; conditions: MDA-MB-231, Neoplasm, 168 h, time 7 day
Tumour [20] = assay: Reduction in CDK7 protein level in tumor of BALB/c mouse xenografted with human MDA-MB-231 cells at 2.5 mg/kg, intratumoral injection daily for 7 days by immunohistochemistry staining analysis relative to control; assay type: functional; conditions: MDA-MB-231, Neoplasm, 168 h, time 7 day
Tumour [21] = assay: Induction of CDK7 degradation in tumor of human MDA-MB-231 cells xenografted in BALB/c mouse model at 0.15 mM intratumoral injection measured after 16 hrs by Western blot analysis relative to control; assay type: functional, tissue-based; conditions: Neoplasm
BT-549 = assay: Growth inhibition of human BT-549 cells assessed as cell viability measured after 4 days by WST8 assay; assay type: functional, cell-based; conditions: BT-549, 96 h
[22] = target: Protein cereblon/Cyclin-dependent kinase 2 (Homo sapiens) (UniProt P24941+Q96SW2); assay: Protac activity at CRBN/CDK2 in human MDA-MB-231 cells assessed as induction of degradation of CDK2 at 100 to 500 nM incubated for 4 to 8 hrs by Western blot analysis; assay type: cell-based; conditions: dose 100-500 nM, time 4-8 hrs
MDA-MB-231 [23] = assay: Antitumor activity against human MDA-MB-231 cells xenografted in BALB/c mouse model assessed as decrease in tumor volume at 2.5 mg/kg, intratumoral injection daily for 7 days relative to control; assay type: functional; set-up: scale not given: the % may be the effect or the level left; conditions: time 7 day
[24] = target: Protein cereblon/Cyclin-dependent kinase 9 (Homo sapiens) (UniProt P50750+Q96SW2); assay: Protac activity at CRBN/CDK9 in human MDA-MB-231 cells assessed as induction of degradation of CDK9 pretreated with MLN4924 at 500 nM incubated for 8 hrs by Western blot analysis; assay type: cell-based
Protein cereblon/Cyclin-dependent kinase 9 (Homo sapiens), sequence (P50750 whole entry, looked up): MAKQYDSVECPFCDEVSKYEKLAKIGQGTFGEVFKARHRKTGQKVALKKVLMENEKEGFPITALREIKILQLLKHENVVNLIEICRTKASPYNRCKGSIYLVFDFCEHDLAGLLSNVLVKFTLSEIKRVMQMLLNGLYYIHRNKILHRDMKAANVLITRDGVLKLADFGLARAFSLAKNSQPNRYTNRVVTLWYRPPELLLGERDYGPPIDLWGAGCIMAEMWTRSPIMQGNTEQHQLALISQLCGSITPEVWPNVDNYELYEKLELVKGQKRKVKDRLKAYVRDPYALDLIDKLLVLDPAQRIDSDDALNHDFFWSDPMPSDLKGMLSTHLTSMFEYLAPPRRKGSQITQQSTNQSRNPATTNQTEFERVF
Protein cereblon/Cyclin-dependent kinase 9 (Homo sapiens), sequence (Q96SW2 whole entry, looked up): as the sequence (Q96SW2 whole entry partner) above

Tumour [25] = assay: Reduction in Ki-67 protein level in tumor of BALB/c mouse xenografted with human MDA-MB-231 cells at 2.5 mg/kg, intratumoral injection daily for 7 days by immunohistochemistry staining analysis relative to control; assay type: functional; conditions: MDA-MB-231, Neoplasm, 168 h, time 7 day
[26] = target: Protein cereblon/Cyclin-dependent kinase 6 (Homo sapiens) (UniProt Q00534+Q96SW2); assay: Protac activity at CRBN/CDK6 in human MDA-MB-231 cells assessed as induction of degradation of CDK6 at 100 to 500 nM incubated for 4 to 8 hrs by Western blot analysis; assay type: cell-based; conditions: dose 100-500 nM, time 4-8 hrs
Protein cereblon/Cyclin-dependent kinase 6 (Homo sapiens), sequence (Q00534 whole entry, looked up): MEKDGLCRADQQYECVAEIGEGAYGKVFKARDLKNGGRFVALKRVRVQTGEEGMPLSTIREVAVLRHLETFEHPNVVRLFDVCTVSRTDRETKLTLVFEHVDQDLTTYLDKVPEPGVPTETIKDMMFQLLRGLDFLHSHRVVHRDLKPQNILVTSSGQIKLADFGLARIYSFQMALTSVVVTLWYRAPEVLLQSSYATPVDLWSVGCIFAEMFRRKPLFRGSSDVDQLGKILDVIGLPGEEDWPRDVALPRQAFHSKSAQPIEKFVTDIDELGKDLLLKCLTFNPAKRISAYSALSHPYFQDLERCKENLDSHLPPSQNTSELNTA
Protein cereblon/Cyclin-dependent kinase 6 (Homo sapiens), sequence (Q96SW2 whole entry, looked up): as the sequence (Q96SW2 whole entry partner) above

MDA-MB-468 = assay: Growth inhibition of human MDA-MB-468 cells assessed as cell viability measured after 4 days by WST8 assay; assay type: functional, cell-based; conditions: MDA-MB-468, 96 h

Protein cereblon/Cyclin-dependent kinase 7 (Homo sapiens), sequence (P50613 whole entry, looked up): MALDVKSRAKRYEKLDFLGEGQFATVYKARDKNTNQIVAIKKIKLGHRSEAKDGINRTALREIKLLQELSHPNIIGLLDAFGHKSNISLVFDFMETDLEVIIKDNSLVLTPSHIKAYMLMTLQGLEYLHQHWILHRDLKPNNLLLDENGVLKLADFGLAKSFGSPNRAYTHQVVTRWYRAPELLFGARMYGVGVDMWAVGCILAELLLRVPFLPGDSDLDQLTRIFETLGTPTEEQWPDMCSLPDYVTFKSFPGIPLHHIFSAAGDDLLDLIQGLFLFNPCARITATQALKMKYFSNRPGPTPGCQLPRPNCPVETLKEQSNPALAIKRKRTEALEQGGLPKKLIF
Protein cereblon/Cyclin-dependent kinase 7 (Homo sapiens), sequence (Q96SW2 whole entry, looked up): as the sequence (Q96SW2 whole entry partner) above

- Activity [1]: inactive
- Activity [7]: inactive
- Activity [9]: inactive
- Activity [11]: inactive
- Activity [14]: inactive
- IC50 (MDA-MB-231 [15]): 3.9 µM
- IC50 (BT-549): 13.6 µM
- Activity [22]: inactive
- Activity [24]: Active
- Activity [26]: inactive
- IC50 (MDA-MB-468): 15 µM
SMILES: CC[C@@H](CO)Nc1cc(NCc2ccc(NC(=O)N3CCN(CCCCCc4cccc5c4CN(C4CCC(=O)NC4=O)C5=O)CC3)cc2)n2ncc(C(C)C)c2n1 (stereo partly drawn)
- inhibition in vivo at 5 mg/kg (Tumour [2]): 12.4%
- Activity (MDA-MB-231 [3]): Active
- Activity (Tumour [4]): inactive
- inhibition in vivo at 5 mg/kg (Tumour [5]): 90.8%
- inhibition in vivo at 5 mg/kg (Tumour [6]): 76.7%
- Activity (Tumour [8]): 54%
- inhibition in vivo at 5 mg/kg (Tumour [10]): 69.7%
- inhibition in vivo at 2.5 mg/kg (Tumour [12]): 41%
- Activity [13]: 12.8%
- Activity (MDA-MB-231 [16]): 50%
- Activity (MDA-MB-231 [17]): Active
- Activity [18]: 13.1%
- inhibition in vivo at 2.5 mg/kg (Tumour [19]): 62.3%
- inhibition in vivo at 2.5 mg/kg (Tumour [20]): 4%
- Activity (Tumour [21]): inactive
- Activity (MDA-MB-231 [23]): 50%
- inhibition in vivo at 2.5 mg/kg (Tumour [25]): 32.8%

From ChEMBL document CHEMBL4828763, “Discovery of Potent and Selective CDK9 Degraders for Targeting Transcription Regulation in Triple-Negative Breast Cancer” (J Med Chem, 2021)
